Data published in ChEMBL document CHEMBL5137099, “Discovery of Novel cccDNA Reducers toward the Cure of Hepatitis B Virus Infection” (J Med Chem, 2022).
The source made the active and inactive calls. No cut-off for these calls is given here.

Tests used:
[1] = Tmax in C3H/J mouse at 20 mg/kg, po by LC-MS/MS analysis; assay type: ADME, organism-based; details: in vivo
[2] = AUC (0 to 12 hrs) in C3H/J mouse at 300 mg/kg, po by LC-MS/MS analysis; assay type: ADME, organism-based; parameters: time < 12 hr, dose 300 mg/kg, route po; details: in vivo
[3] = AUC (0 to infinity) in C3H/J mouse at 20 mg/kg, po by LC-MS/MS analysis; assay type: ADME, organism-based; parameters: time infinity, dose 20 mg/kg, route po; details: in vivo
[4] = Tmax in C3H/J mouse at 5 mg/kg, po by LC-MS/MS analysis; assay type: ADME, organism-based; details: in vivo
[5] = system: Hepatitis B virus; experiment: Antiviral activity against HBV infected HBVcircle mouse model assessed as reduction in HBsAg levels in mouse serum at 300 mg/kg, po bid treated for 3 weeks and measured up to 56 days; assay type: functional, organism-based
[6] = fCaverage in HBVcircle mouse model at 100 mg/kg QD; assay type: ADME, organism-based; details: in vivo
[7] = Dose normalized Cmax in C3H/J mouse at 300 mg/kg, po by LC-MS/MS analysis; assay type: ADME, organism-based; details: in vivo
[8] = fCmax in HBVcircle mouse model at 100 mg/kg BID; assay type: ADME, organism-based; details: in vivo
[9] = Dose normalized Cmax in C3H/J mouse at 20 mg/kg, po by LC-MS/MS analysis; assay type: ADME, organism-based; details: in vivo
[10] = Half life in C3H/J mouse at 20 mg/kg, po by LC-MS/MS analysis; assay type: ADME, organism-based; details: in vivo
[11] = Aqueous solubility of the compound; assay type: physicochemical; details: buffer
[12] = Tmax in C3H/J mouse at 300 mg/kg, po by LC-MS/MS analysis; assay type: ADME, organism-based; details: in vivo
[13] = system: Hepatitis B virus; experiment: Antiviral activity against HBV infected in human HepG2 cells assessed as reduction in HBeAg secretion incubated for 5 days by counter screen assay; assay type: functional, organism-based; details: HepG2, 120 h
[14] = Permeability of the compound by PAMPA analysis; assay type: ADME; details: read-out: permeability
[15] = Dose normalized AUC (0 to 24 hrs) in C57BL/6 mouse at 5 mg/kg, po by LC-MS/MS analysis; assay type: ADME, organism-based; details: in vivo
[16] = Cmax in C3H/J mouse plasma at 20 mg/kg, po by LC-MS/MS analysis; assay type: ADME, organism-based; parameters: dose 20 mg/kg, route po
[17] = system: Hepatitis B virus; experiment: Antiviral activity against HBV infected in human primary hepatocyte cells assessed as reduction in HBV cccDNA production by measuring inhibition of HBsAg secretion measured after 48 hrs by ELISA; assay type: functional, organism-based
[18] = Octanol-aqueous buffer distribution coefficient, log D of the compound at pH 7.4 by CAMDIS assay; assay type: physicochemical
[19] = AUC (0 to infinity) in C3H/J mouse at 100 mg/kg, po by LC-MS/MS analysis; assay type: ADME, organism-based; parameters: time infinity, dose 100 mg/kg, route po; details: in vivo
[20] = Half life in C3H/J mouse at 5 mg/kg, po by LC-MS/MS analysis; assay type: ADME, organism-based; details: in vivo
[21] = fCaverage in HBVcircle mouse model at 100 mg/kg BID; assay type: ADME, organism-based; details: in vivo
[22] = system: Hepatitis B virus; experiment: Antiviral activity against HBV infected HBVcircle mouse model assessed as reduction in HBeAg levels in mouse serum at 300 mg/kg, po bid treated for 3 weeks and measured up to 56 days; assay type: functional, organism-based
[23] = Dose normalized AUC (0 to 24 hrs) in C3H/J mouse at 20 mg/kg, po by LC-MS/MS analysis; assay type: ADME, organism-based; details: in vivo
[24] = Toxicity in C3H/J mouse assessed as tolerability at 100 to 300 mg/kg BID for 5 days; assay type: organism-based; details: in vivo, 120 h, dose 100-300 mg/kg, time 5 day
[25] = Cmax in C3H/J mouse plasma at 5 mg/kg, po by LC-MS/MS analysis; assay type: ADME, organism-based; parameters: dose 5 mg/kg, route po
[26] = Dose normalized AUC (0 to 12 hrs) in C3H/J mouse at 300 mg/kg, po by LC-MS/MS analysis; assay type: ADME, organism-based; details: in vivo
[27] = system: Hepatitis B virus; experiment: Antiviral activity against HBV infected in human HepDES19 cells assessed as reduction in HBV cccDNA production by measuring inhibition of HBeAg secretion incubated for 5 days by ELISA; assay type: functional, organism-based; details: HepDES19, 120 h
[28] = system: Hepatitis B virus; experiment: Antiviral activity against HBV infected HBVcircle mouse model assessed as reduction in cccDNA levels in mouse liver at 300 mg/kg, po bid treated for 3 weeks and measured up to 56 days by qPCR analysis; assay type: functional, organism-based
[29] = fCmax in HBVcircle mouse model at 300 mg/kg BID; assay type: ADME, organism-based; details: in vivo
[30] = Cmax in C3H/J mouse plasma at 100 mg/kg, po by LC-MS/MS analysis; assay type: ADME, organism-based; parameters: dose 100 mg/kg, route po
[31] = Half life in C3H/J mouse at 100 mg/kg, po by LC-MS/MS analysis; assay type: ADME, organism-based; details: in vivo
[32] = fCmax in HBVcircle mouse model at 100 mg/kg QD; assay type: ADME, organism-based; details: in vivo
[33] = fCaverage in HBVcircle mouse model at 300 mg/kg BID; assay type: ADME, organism-based; details: in vivo
[34] = Dose normalized Cmax in C3H/J mouse at 100 mg/kg, po by LC-MS/MS analysis; assay type: ADME, organism-based; details: in vivo
[35] = fCmin in HBVcircle mouse model at 100 mg/kg QD; assay type: ADME, organism-based; details: in vivo
[36] = Dose normalized AUC (0 to 24 hrs) in C3H/J mouse at 100 mg/kg, po by LC-MS/MS analysis; assay type: ADME, organism-based; details: in vivo
[37] = Metabolic stability in mouse hepatocytes assessed as intrinsic clearance; assay type: ADME, cell-based, Hepatocyte; details: read-out: CLH
[38] = Dose normalized Cmax in C3H/J mouse at 5 mg/kg, po by LC-MS/MS analysis; assay type: ADME, organism-based; details: in vivo
[39] = Cmax in C3H/J mouse plasma at 300 mg/kg, po by LC-MS/MS analysis; assay type: ADME, organism-based; parameters: dose 300 mg/kg, route po
[40] = fCmin in HBVcircle mouse model at 300 mg/kg BID; assay type: ADME, organism-based; details: in vivo
[41] = Tmax in C3H/J mouse at 100 mg/kg, po by LC-MS/MS analysis; assay type: ADME, organism-based; details: in vivo
[42] = system: Hepatitis B virus; experiment: Antiviral activity against HBV infected in human HepDES19 cells assessed as reduction in HBV cccDNA production by measuring inhibition of HBeAg secretion at 0.3 to 30 uM by southern blot analysis; assay type: functional, organism-based; details: dose 0.3-30 µM
[43] = fCmin in HBVcircle mouse model at 100 mg/kg BID; assay type: ADME, organism-based; details: in vivo
[44] = AUC (0 to infinity) in C3H/J mouse at 5 mg/kg, po by LC-MS/MS analysis; assay type: ADME, organism-based; parameters: time infinity, dose 5 mg/kg, route po; details: in vivo

Tmax [1]: 0.5 h
AUC(0-t) at 12 h [2]: 453000 ng·h/mL
AUC(0-inf) [3]: 11800 ng·h/mL
Tmax [4]: 0.25 h
f(Cave) [6]: 178 nM
Cmax/dose [7]: 200 ng/mL
fCmax [8]: 1151 nM
Cmax/dose [9]: 408 ng/mL
half-life [10]: 3.45 h
solubility [11]: > 452 µg/mL
Tmax [12]: 2.67 h
Papp [14]: 2.82 ×10⁻⁶ cm/s
AUC/dose [15]: 1042 ng·h/mL
Cmax [16]: 8160 ng/mL
logD [18]: 1
AUC(0-inf) [19]: 120000 ng·h/mL
half-life [20]: 3.46 h
f(Cave) [21]: 351 nM
AUC/dose [23]: 591 (ng·h/mL)/(mg/kg)
Cmax [25]: 828 ng/mL
AUC/dose [26]: 1510 (ng·h/mL)/(mg/kg)
IC50 [27]: 0.58 µM
fCmax [29]: 3.452 µM
Cmax [30]: 32200 ng/mL
half-life [31]: 1.82 h
fCmax [32]: 1151 nM
f(Cave) [33]: 1053 nM
Cmax/dose [34]: 322 ng/mL
fCmin [35]: 0.23 nM
AUC/dose [36]: 1200 (ng·h/mL)/(mg/kg)
CLint scaled [37]: 51.9 mL/min/kg
Cmax/dose [38]: 166 ng/mL
Cmax [39]: 59900 ng/mL
fCmin [40]: 62.2 nM
Tmax [41]: 0.5 h
fCmin [43]: 20.7 nM
AUC(0-inf) [44]: 857 ng·h/mL
Structure (SMILES): O=C(O)[C@@H]1CCN(c2ccc3c(=O)c4cccc(Cl)c4oc3c2)C1
Activity [5]: Active
IC50 [13]: > 50 µM
IC50 [17]: 1.15 µM
Activity [22]: Active
Activity [24]: Non-Toxic
Activity [28]: Active
Activity [42]: Active
